From patent publication US20040063662A1, “Selenophene anti-tumor agents” (priority 1996, published 2004) come the findings set out here.

Each structure is given as a SMILES string. Values after ≈ are worked out from the molar mass of the structure shown. Values joined by “and” are separate entries in the source; they are usually repeats but may differ in a detail not shown here. Equal entries are not always repeated. Where two headings read alike, the source gives them in different places. A value given as a limit tells only on which side of the number the result lay.

Data set [1] addresses T1, 50:50 mixture of recombinant mouse PKCα and mouse PKCβ2.
T1 construct: The enzymes are expressed in Sf9 insect cells from recombinant baculovirus and partially purified on DEAE-cellulose and Sephacryl 200 gel filtration
As to the kind of experiment: Protein Kinase C (PKC) screening assay. It counts as biochemical. As to conditions: Inhibition of Protein Kinase C. The text has this: The Protein Kinase C (PKC) screening assay utilized in the following experiments is similar to standard PKC assays used by many investigators. Its primary features are that 1) the assay utilizes a 50:50 mixture of recombinant mouse PKCα and mouse PKCβ2; 2) employs histone as phosphate-accepting substrate; and 3) the PKC enzymatic activity is activated with phosphatidylserine, TPA and low concentration of calcium, so that both calcium and TPA are somewhat limiting for the extent of activation. In this manner the assay is sensitive to inhibitors of PKC activation. A more detailed description of the assay is provided in the following paragraphs.
The recombinant PKC formulation is a mixture (equal parts by activity) of mouse PKCα and mouse PKCβ2. The enzymes are expressed in Sf9 insect cells from recombinant baculovirus and partially purified on DEAE-cellulose and Sephacryl 200 gel filtration. Sufficient PKC is added to each reaction to provide approximately 4 pmols phosphate transferred in 30 minute (per total reaction.) The reaction is linear over the time when 4 pmols of phosphate is transferred and the reaction remains linear well beyond this time frame.
The PKC screening assay is performed in 96 well polystyrene U bottom micro titer plates, in a total reaction volume of 50 ul. Solution manipulations are performed during the assay utilize a Rainin, motorized EDP-plus M8 eight-channel micropipettor.
In some cases 50% DMSO:water, water, or methanol is substituted (if essential) for the solvent. At least 25 μl of the highest concentration sample to be assayed is transferred to a well in a 96 well U-bottom polystyrene assay plate. Serial 5-fold or 10-fold dilutions (depending on the dose-range desired) are made using the EDP-plus M8 eight-channel pipettor in dilute mode and mixing by repipetting. Using the 8-channel pipettor, 2 μl of each dilution is transferred to the appropriate wells of the plate(s) to be used for each assay. Duplicate assays are performed for each dose, with each assay, allowing six wells (half the row) for three-dose assays, or 12 wells (the whole row) for six-dose assays. In general, extracts and fractions are assayed at three doses: 400, 40 an 4 ug/ml, while pure compounds are tested at six doses: 400, 80, 16, 3.2, 0.64, 0.128 ([…]).

Data set [2] relates to human renal carcinoma cells (A-498). As to the kind of experiment: Selective cytotoxicity microculture assay, human renal carcinoma.
The subject of data set [3] is normal human renal cells (RPTEC). As to the kind of experiment: Selective cytotoxicity microculture assay, normal human renal cells. It counts as cell-based.
Data set [4] deals with ras-transformed human bronchial epithelial cells (TBE). As to the kind of experiment: Selective cytotoxicity microculture assay, ras-transformed bronchial epithelial cells. It counts as cell-based.
Data set [5] is described as follows: Selective cytotoxicity microculture assay, human renal carcinoma. The conditions noted are these: human, SCI (selectively cytotoxicity index), GI50 (RPTEC)/GI50 (A-498).
The nature of data set [6]: In vivo activity of glycoside prodrug (preliminary). The conditions noted are these: preliminary results. The text has this: (§1) a. […] Scheme 8 illustrates a procedure utilized for the synthesis of glucoside, galactoside or, glucuronic acid analogs of α-terselenophene: [drawing 60]
Data set [7] can be described thus: In vitro activity of glycoside prodrug (preliminary). In kind it is cell-based. The conditions noted are these: preliminary results.
Excerpt: as §1

The mark [8] stands for this setting: Homo sapiens, A498, A-498 human renal carcinoma.
Setting [9] is: Homo sapiens, RPTEC, read-out: GI50.
Setting [10] is: Homo sapiens, Epithelial cell, read-out: GI50.

As to `O=Cc1ccc(-c2ccc(-c3ccc(C=O)s3)[se]2)s1` [compound 675345], the IC50 in data set [1] is 0.9 µg/mL (≈ 2.56 µM).

Regarding `COc1cccc2c1C(=O)c1c(O)c3c(c(O)c1C2=O)C[C@@](O)(C(=O)CO)C[C@@H]3O[C@H]1C[C@H](N)[C@H](O)[C@H](C)O1` [compound 123127], the GI50 in data set [2] (A-498 human renal carcinoma) came to 0.05 µg/mL (≈ 0.092 µM); in data set [3] it was 0.05 µg/mL (≈ 0.092 µM); in data set [4], 0.03 µg/mL (≈ 0.0552 µM). Also, the “SCI (selectively cytotoxicity index)” value in data set [2] (GI50 (RPTEC)/GI50 (A-498)) amounted to 1.

Take `O=Cc1ccc(-c2ccc(-c3ccc[se]3)[nH]2)[se]1` [compound 676634]: the GI50 in data set [2] (A-498 human renal carcinoma) is 0.0006 µg/mL and 0.003 µg/mL; in data set [4], 0.0003 µg/mL and 0.006 µg/mL. Also, the IC50 in data set [1] is 0.8 µg/mL (≈ 2.27 µM).

`c1c[se]c(-c2ccc(-c3ccc[se]3)s2)c1` [compound 676628]: in data set [5], the selectivity ratio was determined as 5. Besides, the GI50 in data set [2] (setting [8]) stood at 80 µg/mL (≈ 234 µM); in data set [3] (setting [9]) it was 400 µg/mL (≈ 1170 µM); in data set [4] (setting [10]) it was 100 µg/mL (≈ 292 µM). For the same compound, the IC50 in data set [1] is recorded as 1 × 10^0 μg/ml.

In the case of `O=Cc1ccc(-c2ccc(-c3ccc[se]3)s2)[se]1` [compound 676629], in data set [1], the IC50 was 0.2 µg/mL (≈ 0.54 µM).

`OCc1ccc(-c2ccc(-c3cccs3)[se]2)s1` [compound 675344]: in data set [5], the selectivity ratio is over 1000. The GI50 in data set [2] (A-498 human renal carcinoma) is 3e-07 µg/mL and 6e-08 µg/mL; in data set [4], <10^−2 μg/ml and 7 × 10^−6 μg/ml. Also, in data set [1], the IC50 was 50 µg/mL (≈ 154 µM).

For `O=Cc1ccc(-c2ccc(-c3ccc(C=O)[se]3)[se]2)[se]1` [compound 675245], in data set [1], the IC50 is listed as 1 × 10^0 μg/ml.

In the case of `c1c[se]c(-c2ccc(-c3ccc[se]3)[se]2)c1` [compound 674973], the selectivity ratio in data set [5] amounted to 1. Moreover, the figures for the GI50 in data set [2] (setting [8]), in data set [3] (setting [9]) and in data set [4] (setting [10]) were 3 µg/mL (≈ 7.71 µM), 4 µg/mL (≈ 10.3 µM) and 4 µg/mL (≈ 10.3 µM), respectively. The IC50 in data set [1] was 7 × 10^0 μg/ml.

Compound `c1csc(-c2ccc(-c3ccc[se]3)s2)c1` displayed a melting point of 103 to 104 °C.

As for `O=Cc1ccc(-c2ccc(-c3ccc(C=O)[se]3)s2)[se]1` [compound 676630], in data set [1], the IC50 worked out at 0.9 µg/mL (≈ 2.26 µM).

Regarding `O=Cc1ccc(-c2ccc(-c3cccs3)[se]2)s1` [compound 675346], the IC50 in data set [1] came out at 0.5 µg/mL (≈ 1.55 µM).

As for `OCc1ccc(-c2ccc(-c3ccc[se]3)[nH]2)[se]1` [compound 676635], in data set [5], the selectivity ratio is over 1000. Further, the GI50 in data set [2] (setting [8]) is under 0.001 µg/mL; in data set [3] (setting [9]) it was 2 µg/mL (≈ 5.63 µM); in data set [4] (setting [10]), 20 µg/mL (≈ 56.3 µM). Further, the IC50 in data set [1] is listed as 8 × 10^0 μg/ml.

Turning to `c1c[se]c(-c2ccc(-c3ccc[se]3)[nH]2)c1` [compound 676633], in data set [5], the selectivity ratio is under 1. For the same compound, the GI50 is 100 µg/mL (≈ 308 µM) in data set [2] (setting [8]), 20 µg/mL (≈ 61.5 µM) in data set [3] (setting [9]) and 10 µg/mL (≈ 30.8 µM) in data set [4] (setting [10]). Also, the IC50 in data set [1] is recorded as 6 × 10^0 μg/ml.

Turning to `c1csc(-c2ccc(-c3cccs3)[se]2)c1` [compound 675347], the selectivity ratio in data set [5] is under 1. Also, the GI50 amounted to 30 µg/mL (≈ 102 µM) in data set [2] (setting [8]), 20 µg/mL (≈ 67.7 µM) in data set [3] (setting [9]) and 10 µg/mL (≈ 33.9 µM) in data set [4] (setting [10]). In addition, the IC50 in data set [1] was 1 × 10^0 μg/ml.

For `OC[C@H]1O[C@@H](OCc2ccc(-c3ccc(-c4cccs4)s3)s2)[C@H](O)[C@@H](O)[C@@H]1O` [β-D-glucoside of 2-hydroxymethyl-α-terthiophene], the in vivo activity entry in data set [6] is “retains”. In addition, the in vitro activity entry in data set [7] is recorded as “retains”.

For `O=Cc1ccc(-c2ccc(-c3ccc[se]3)[se]2)[se]1` [compound 675244], in data set [1], the IC50 was 1 × 10^0 μg/ml.
